# ± gives the standard deviation of the averaged measurements.
# Compound: O=C(O)C(F)(OC(F)(F)C(F)(OC(F)(F)C(F)(OC(F)(F)C(F)(F)C(F)(F)F)C(F)(F)F)C(F)(F)F)C(F)(F)F [Perfluoro-(2,5,8-trimethyl-3,6,9-trioxadodecanoic)acid] (in DMSO)
# Assay: level (log10 ratio to DMSO vehicle control); higher = higher biomarker level / cell amount than vehicle control
# Protocol: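 BioMAP Diversity Plus panel of 12 human primary cell co-culture systems (3C, 4H, LPS, SAg, BT, BF4T, BE3C, CASM3C, HDF3CGF, KF3CT, MyoF, Mphg). Compounds were added 1 h before stimulation and left for 24 h (MyoF 48 h; BT 72 h for soluble read-outs or 6 d for IgG). Biomarkers were read by ELISA, cytotoxicity by SRB, PBMC viability and proliferation by Alamar Blue. Each well value was divided by the mean of 8 DMSO control wells on the same plate and log10 transformed; duplicate blinded samples were tested at 4 concentrations.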
Test System,level (log10) (1100 nM),level (log10) (3300 nM),level (log10) (10000 nM)
3C:CCL2/MCP-1,-0.0075 ± 0.0035,-0.0195 ± 0.00071,0.001 ± 0.034
3C:CD54/ICAM-1,0.007 ± 0.02,-0.0005 ± 0.00071,0.0185 ± 0.0064
3C:CD62E/E-Selectin,-0.0005 ± 0.016,-0.0035 ± 0.005,0.019 ± 0.0071
3C:CD106/VCAM-1,-0.0075 ± 0.022,-0.0055 ± 0.028,-0.0005 ± 0.028
3C:CD141/Thrombomodulin,-0.0035 ± 0.026,-0.0185 ± 0.029,-0.01 ± 0.035
3C:CD142/Tissue Factor,-0.013 ± 0.0042,-0.0055 ± 0.015,-0.005 ± 0.013
BE3C:Keratin 8/18,-0.0165 ± 0.028,-0.0085 ± 0.022,-0.001 ± 0.038
BE3C:MMP-1,-0.0135 ± 0.00071,-0.0175 ± 0.018,0.0135 ± 0.022
BE3C:MMP-9,-0.0155 ± 0.0092,-0.011 ± 0.0071,-0.0145 ± 0.011
BE3C:PAI-I,-0.0265 ± 0.036,-0.0315 ± 0.022,0.006 ± 0.064
BE3C:SRB,-0.0015 ± 0.0021,-0.0075 ± 0.0035,0.0105 ± 0.015
BE3C:tPA,-0.0035 ± 0.025,0.0075 ± 0.023,0.017 ± 0.04
BE3C:uPA,0.0025 ± 0.0064,-0.011 ± 0.0014,-0.0025 ± 0.019
CASM3C:CCL2/MCP-1,0 ± 0.0042,-0.008 ± 0.0028,0.0055 ± 0.005
CASM3C:CD87/uPAR,0.0175 ± 0.022,0.0015 ± 0.018,0.0265 ± 0.0035
CASM3C:CD106/VCAM-1,0.0125 ± 0.012,-0.003 ± 0.031,-0.0025 ± 0.005
CASM3C:CD141/Thrombomodulin,0.0045 ± 0.036,0.018 ± 0.047,0.014 ± 0.027
CASM3C:CD142/Tissue Factor,0.0095 ± 0.018,0.0085 ± 0.011,0.0025 ± 0.015
CASM3C:CXCL8/IL-8,-0.0025 ± 0.021,-0.015 ± 0.025,0.0105 ± 0.0035
CASM3C:CXCL9/MIG,0.0055 ± 0.0021,-0.0065 ± 0.0092,0.0075 ± 0.005
CASM3C:HLA-DR,0.0045 ± 0.019,-0.004 ± 0.0028,0.0165 ± 0.012
CASM3C:IL-6,-0.016 ± 0.048,-0.0155 ± 0.043,-0.0125 ± 0.018
CASM3C:LDLR,0.0065 ± 0.011,0.004 ± 0.0014,0.0025 ± 0.021
CASM3C:M-CSF,-0.0285 ± 0.029,0.0055 ± 0.016,0.002 ± 0.0014
CASM3C:PAI-I,-0.002 ± 0.0014,-0.0005 ± 0.0035,0.009 ± 0.0099
CASM3C:Proliferation,0.011 ± 0.0014,-0.008 ± 0.016,-0.018 ± 0.023
CASM3C:SRB,0.0035 ± 0.005,-0.006 ± 0.0071,0.0005 ± 0.0035

Test System,level (log10) (1100 nM),level (log10) (3300 nM),level (log10) (10000 nM)
CASM3C:Serum Amyloid A,-0.005 ± 0.014,0.0105 ± 0.036,0.04 ± 0.03
HDF3CGF:CCL2/MCP-1,-0.0035 ± 0.016,-0.0365 ± 0.005,-0.01 ± 0.0042
HDF3CGF:CD54/ICAM-1,-0.001 ± 0.0057,-0.0015 ± 0.012,0.011 ± 0.031
HDF3CGF:CD106/VCAM-1,0.001 ± 0.017,-0.03 ± 0.021,-0.0385 ± 0.07
HDF3CGF:CXCL8/IL-8,0.0005 ± 0.00071,0 ± 0.0071,0.004 ± 0.0014
HDF3CGF:CXCL9/MIG,-0.0165 ± 0.005,0.005 ± 0.0057,-0.023 ± 0.02
HDF3CGF:CXCL10/IP-10,0 ± 0.0085,-0.01 ± 0.0085,0.0185 ± 0.026
HDF3CGF:CXCL11/I-TAC,-0.0015 ± 0.011,0.003 ± 0.014,-0.0265 ± 0.033
HDF3CGF:Collagen I,0.027 ± 0.0028,-0.014 ± 0.051,0.0475 ± 0.013
HDF3CGF:Collagen III,-0.064 ± 0.072,0.014 ± 0.048,0.0695 ± 0.023
HDF3CGF:EGFR,-0.0365 ± 0.15,-0.113 ± 0.16,0.025 ± 0.04
HDF3CGF:M-CSF,0.0165 ± 0.0064,0.0005 ± 0.033,-0.03 ± 0.092
HDF3CGF:MMP-1,0.029 ± 0.018,0.023 ± 0.0028,-0.0075 ± 0.0021
HDF3CGF:PAI-I,0.049 ± 0.078,0.056 ± 0.076,0.062 ± 0.047
HDF3CGF:Proliferation 72hr,-0.0205 ± 0.011,0.038 ± 0.0099,0.0395 ± 0.028
HDF3CGF:SRB,-0.009 ± 0.023,0.0075 ± 0.011,0.027 ± 0.0071
HDF3CGF:TIMP-1,-0.0095 ± 0.04,0.003 ± 0.03,0.0065 ± 0.011
HDF3CGF:TIMP-2,0.011 ± 0.0042,-0.0035 ± 0.0064,-0.013 ± 0.047
KF3CT:CCL2/MCP-1,-0.017 ± 0.0099,-0.049 ± 0.025,0.011 ± 0.0099
KF3CT:CD54/ICAM-1,0.004 ± 0.0042,-0.0025 ± 0.0064,0.013 ± 0.013
KF3CT:CXCL8/IL-8,-0.004 ± 0.0099,-0.01 ± 0.035,0.0175 ± 0.056
KF3CT:CXCL9/MIG,0.0045 ± 0.012,-0.002 ± 0.0085,0.0045 ± 0.0021
KF3CT:CXCL10/IP-10,-0.0005 ± 0.0021,0.0035 ± 0.0078,0.0025 ± 0.011
KF3CT:IL-1alpha,-0.0015 ± 0.005,-0.0195 ± 0.012,0.006 ± 0.0028
KF3CT:MMP-9,-0.0035 ± 0.00071,-0.022 ± 0.044,-0.0125 ± 0.016
KF3CT:PAI-I,-0.0025 ± 0.0035,-0.018 ± 0.0071,0.006 ± 0.0099
KF3CT:SRB,0.0005 ± 0.011,0.0025 ± 0.016,-0.008 ± 0.0014

Test System,level (log10) (1100 nM),level (log10) (3300 nM),level (log10) (10000 nM)
KF3CT:TIMP-2,-0.0075 ± 0.013,-0.0105 ± 0.011,-0.001 ± 0.017
KF3CT:uPA,0.01,0.0045 ± 0.021,0.0075 ± 0.005
MyoF:CD106/VCAM-1,0 ± 0.0028,-0.0035 ± 0.0092,0.013 ± 0.0099
MyoF:CXCL8/IL-8,0.0475 ± 0.077,0.005 ± 0.0028,-0.006 ± 0.016
MyoF:Collagen I,-0.0495 ± 0.026,-0.0365 ± 0.0021,-0.03 ± 0.0071
MyoF:Collagen III,-0.008 ± 0.021,0.0155 ± 0.00071,0.006
MyoF:Collagen IV,0.034 ± 0.054,0.0255 ± 0.037,0.0225 ± 0.025
MyoF:Decorin,0 ± 0.013,-0.0065 ± 0.013,0.012
MyoF:MMP-1,-0.048 ± 0.0014,-0.0475 ± 0.012,-0.03 ± 0.027
MyoF:PAI-I,0.005 ± 0.021,0.006 ± 0.0085,0.0085 ± 0.016
MyoF:SRB,-0.0065 ± 0.005,0.008 ± 0.018,0.0085 ± 0.015
MyoF:TIMP-1,0.007 ± 0.0014,0.0155 ± 0.013,0.022 ± 0.024
MyoF:alpha-SM Actin,-0.002 ± 0.027,-0.0105 ± 0.00071,0.002 ± 0.062
MyoF:bFGF,-0.014 ± 0.0028,-0.0045 ± 0.0035,0.0075 ± 0.005
lMphg:CCL2/MCP-1,0.0025 ± 0.012,-0.0095 ± 0.0078,-0.0125 ± 0.018
lMphg:CCL3/MIP-1alpha,0.0465 ± 0.019,-0.003 ± 0.05,0.039 ± 0.041
lMphg:CD40,0.019 ± 0.057,0.026 ± 0.076,-0.0195 ± 0.036
lMphg:CD62E/E-Selectin,0.002 ± 0.0014,-0.03 ± 0.0028,-0.0275 ± 0.026
lMphg:CD69,-0.02 ± 0.0099,-0.017 ± 0.0042,-0.008 ± 0.0014
lMphg:CD106/VCAM-1,0.001 ± 0.0014,0.003 ± 0.021,0.0015 ± 0.044
lMphg:CXCL8/IL-8,0.0035 ± 0.04,0.005 ± 0.02,0.0375 ± 0.033
lMphg:IL-1alpha,-0.0225 ± 0.021,-0.026 ± 0.016,0.0045 ± 0.0078
lMphg:M-CSF,-0.0095 ± 0.00071,-0.0065 ± 0.022,0.0145 ± 0.021
lMphg:SRB,-0.005,-0.0115 ± 0.0092,-0.005 ± 0.0042
lMphg:SRB-Mphg,-0.0035 ± 0.00071,-0.0135 ± 0.0092,0.014 ± 0.014
lMphg:sIL-10,-0.0195 ± 0.0021,-0.0265 ± 0.084,-0.05 ± 0.072

# — the supplement of paper PMC10331698
